Consider one substance from patent US9982007B2, “Cocrystals of progesterone” (AMRI SSCI, LLC, priority 2012, dated 2018).

This series is described as follows: Powder dissolution. Type of series: physicochemical. As to conditions: compared to commercially available progesterone.

Regarding “progesterone:vanillic acid [Cocrystal 1]”, the dissolution rate entry is listed as “increase in dissolution rate” and the “progesterone concentration over time” value is on record as “sustained progesterone concentration over time”.
